The source of these data is patent publication US20210347813A1, “COMPOUNDS WITH HIV MATURATION INHIBITORY ACTIVITY” (priority 2018, published 2021).

For one data set, the system named is HIV. Particulars: cited from earlier work.
A short description of data set [1]: Rat PK after single intramuscular (IM) administration of prodrugs, parent MI #1 measured in plasma. Particulars: male SD rats, IM 20 mg/kg. The data set is classed as in vivo. More on the design: unit not given here. An excerpt:
FIG. 2 is a concentration vs time curve of the plasma concentrations of parent MI #1 following a single Intramuscular (IM) administration of the Prodrugs and parent MI #1 to male SD rats. […] Additional pharmacokinetic data collected from the same experiments summarized in FIG. 2 is contained in the table below.
Animal strain: Sprague Dawley (SD) rat, purchased from Shanghai SLAC Laboratory Animal Co., Ltd. Sex: male; Age: 6-8 weeks; BW: 200-250 g, N=30 rats (N=3 per prodrug); Food status: Free access to food and water for the entire in-life phase.
Dose: 20 mg/kg (2 mL/kg, 10 mg/mL), IM injection; Formulation: 1% Kolliphor P188+4.5% Mannitol+94.5% Milli-Q Water;
N=3 rats/time point for each compound via IM administration
Sampling at 0.5, 1, 3, 5 and 7 hr, 1, 2, 3, 4, 5, 6 and 7 days post dose then 2×/week for a total of 8 weeks, 12*8 time points, serial bleeding for plasma only.
* Weekly interim analysis of the plasma samples (12 time points) to get an early read on the PK of the construct Blood collection and processing: The animal was restrained manually and approximately 150 μL blood per time point was collected in tubes containing K2EDTA anticoagulant. The sample was centrifuged at 2200 g for 10 min at 2-8° C. for plasma. The plasma samples were stored immediately at −70° C.
LC-MS/MS method was developed to quantitate both prodrugs and parent in plasma. The samples were analyzed in duplicate. Two sets of standard curves and three levels of QCs were run in each plate. Both the standards and QCs were run in duplicate.
WinNonlin V 6.4 statistics software (Pharsight Corporation, California, USA) was used to generate pharmacokinetics parameters (Tmax, Cmax, T1/2, AUC, MRT etc).

Data set [2] is described as follows: Mouse PK after subcutaneous (SQ) suspension doses, MI #3 measured in plasma. The data set is classed as in vivo. The settings on record: male CD-1 mice, SQ 20 mg/kg suspension, MI Parent #3 measured in plasma. As for the experimental part:
FIG. 1 is a graph of concentration vs. time from plasma of MI #3 in ng/mL vs time in hours following subcutaneous (SQ) doses of MI3 # or the prodrugs from Examples 3, 4, and 5 as suspensions in 1% Kolliphor P 188/2% PEG 3350/3.5% Mannitol/93.5% water at 20 mg/kg to male CD-1 mice. […] Exposure of Parent MI #3 decreased 23-fold, 16-fold, and 3-fold after administration of Example 3, 4 and 5, respectively. The presence of the prodrugs was not observed in plasma. Although the exposure is lower than when dosed with parent itself, the half-life of Parent MI #3 is longer after administration of all three prodrugs showing the potential to be useful for less frequent dosing.
Subcutaneous (SQ) doses of each of the compounds from Examples 3, 4, and 5 as suspensions (Dose conc. 4 mg/mL, Dose volume 5 mL/kg) in 1% Kolliphor P 188/2% PEG 3350/3.5% Mannitol/93.5% water at 20 mg/kg to 3 male CD-1 mice (Cr1:CD1 (ICR)) Charles River Laboratories, 25-30gs at dose initiation, age as appropriate for weight. The concentration of Parent MI #3 and prodrugs were measured in the plasma of animals of all three groups at time points of 0.5, 1, 3, 5, 7, 24, 48, 72, 96, 120, 144, and 168 hours. The collection conditions were K2EDTA and the volume/timepoint was 30 μL. The presence of the prodrugs was not observed in plasma for any group.
LC-MS/MS methods were developed to quantitate both prodrugs and parent in plasma. The samples were analyzed in duplicate. Two sets of standard curves and three levels of QCs were run in each plate. Both the standards and QCs were run in duplicate. The table below is a summary of the protocols and guidance that was supplied to the scientists who carried out the experiments.

Data set [3] in a line: Single dose mouse PK study, oral dose of prodrug or parent, parent MI #3 measured. The settings on record: male CD1 mice, PO 5 mg/kg. The data set is classed as in vivo. The method, then:
A single dose mouse PK study was conducted following an oral dose of the prodrug that was prepared as Example 1, being dosed and measuring parent maturation inhibitor (MI) #3, and compared to PK parameters with Parent MI #3 being dosed in male CD1 mice. In the current study, the formulation for parent MI #3 was 0.5% Methocel A4M:0.1% Tween 80:99.4% water. For the prodrug of Example 1, the formulation was 2% Dimethylacetamide:10% ethanol: 87.5% PEG 400:0.5% Tween 80.
Following oral administration of the prodrug, all prodrug concentrations at all timepoints were BLQ. As shown in the table below the exposure of the parent MI #3 obtained from dosing the prodrug was higher than that seen with dosing a crystalline suspension of the parent MI #3.

A short description of data set [4]: MI Parent #3 mouse PK, IV solution. Particulars: dose 1 (printed mg). The data set is classed as in vivo.

Take `C=C(C)[C@@H]1CC[C@]2(C(=O)O)CC[C@]3(C)[C@H](CC[C@@H]4[C@@]5(C)CC[C@H](OC(=O)CC(C)(C)C(=O)O)C(C)(C)[C@@H]5CC[C@]43C)[C@@H]12` [Bevirimat]: the “reduction of HIV viral load (mean)” value in the data set with HIV (patients with trough levels >=20 μg/mL and no key baseline Gag polymorphisms at Q369, V370 or T371) is 1.3 log10/mL. Further, in the data set with HIV (users with Gag polymorphisms at Q369, V370 or T371), the “viral load reduction vs patients without Gag polymorphisms” value is listed as “significantly lower load reductions”.

Turning to `C=C(C)[C@@H]1CC[C@]2(NCCN3CCS(=O)(=O)CC3)CC[C@]3(C)[C@H](CC[C@@H]4[C@@]5(C)CC=C(C6=CC[C@@](CF)(C(=O)OCOC(=O)CCCCC)CC6)C(C)(C)[C@@H]5CC[C@]43C)[C@@H]12` [Example 18, (Hexanoyloxy)methyl (R)-4-((1R,3aS,5aR,5bR,7aR,11aS,11bR,13aR,13bR)-3a-((2-(1,1-dioxidothiomorpholino)ethyl)amino)-5a,5b,8,8,11a-pentamethyl-1-(prop-1-en-2-yl)-2,3,3a,4,5,5a,5b,6,7,7a,8,11,11a,11b,12,13,13a,13b-octadecahydro-1H-cyclopenta[a]chrysen-9-yl)-1-(fluoromethyl)cyclohex-3-ene-1-carboxylate], in data set [1], the “AUCINF (day)” value turned out to be 2100.

In the case of `C=C(C)[C@@H]1CC[C@]2(NCCN3CCS(=O)(=O)CC3)CC[C@]3(C)[C@H](CC[C@@H]4[C@@]5(C)CC=C(C6=CC[C@@](CF)(C(=O)OCOC(=O)CCCCCCC)CC6)C(C)(C)[C@@H]5CC[C@]43C)[C@@H]12` [Example 19, (Octanoyloxy)methyl (R)-4-((1R,3aS,5aR,5bR,7aR,11aS,11bR,13aR,13bR)-3a-((2-(1,1-dioxidothiomorpholino)ethyl)amino)-5a,5b,8,8,11a-pentamethyl-1-(prop-1-en-2-yl)-2,3,3a,4,5,5a,5b,6,7,7a,8,11,11a,11b,12,13,13a,13b-octadecahydro-1H-cyclopenta[a]chrysen-9-yl)-1-(fluoromethyl)cyclohex-3-ene-1-carboxylate], the “AUCINF (day)” value in data set [1] is listed as 1393.

For `C=C(C)[C@@H]1CC[C@]2(NCCN3CCS(=O)(=O)CC3)CC[C@]3(C)[C@H](CC[C@@H]4[C@@]5(C)CC=C(C6=CC[C@@](CF)(C(=O)OCOC(=O)C(C)C)CC6)C(C)(C)[C@@H]5CC[C@]43C)[C@@H]12` [Example 21, (Isobutyryloxy)methyl (R)-4-((1R,3aS,5aR,5bR,7aR,11aS,11bR,13aR,13bR)-3a-((2-(1,1-dioxidothiomorpholino)ethyl)amino)-5a,5b,8,8,11a-pentamethyl-1-(prop-1-en-2-yl)-2,3,3a,4,5,5a,5b,6,7,7a,8,11,11a,11b,12,13,13a,13b-octadecahydro-1H-cyclopenta[a]chrysen-9-yl)-1-(fluoromethyl)cyclohex-3-ene-1-carboxylate], the “AUCINF (day)” value in data set [1] amounted to 1682.

With `C=C(C)[C@@H]1CC[C@]2(NCC[C@]3(O)CC[C@@H](S(C)(=O)=O)CC3)CC[C@]3(C)[C@H](CC[C@@H]4[C@@]5(C)CC=C(C6=CC[C@@](COc7ncccc7C#N)(C(=O)O)CC6)C(C)(C)[C@@H]5CC[C@]43C)[C@@H]12` [Parent MI #3, (S)-1-(((3-cyanopyridin-2-yl)oxy)methyl)-4-((1R,3aS,5aR,5bR,7aR,11aS,11bR,13aR,13bR)-3a-((2-((1s,4R)-1-hydroxy-4-(methylsulfonyl)cyclohexyl)ethyl)amino)-5a,5b,8,8,11a-pentamethyl-1-(prop-1-en-2-yl)-2,3,3a,4,5,5a,5b,6,7,7a,8,11,11a,11b,12,13,13a,13b-octadecahydro-1H-cyclopenta[a]chrysen-9-yl)cyclohex-3-enecarboxylic acid], in data set [2], the “%AUCextra” value was 12.3%, the AUClast stood at 449.442 µg·h/mL, the AUCtot amounted to 515.257 µg·h/mL and the Bioavailability was determined as 35 % F. In data set [2], the Cmax worked out at 6.563 µg/mL and the “t(1/2)” value is listed as 58.3 h. Also, in data set [3], the AUC0-24h norm is on record as 3.7 μg/mL *h/dose, the AUC0-last stood at 18 µg·h/mL, the Bioavailability is recorded as 5.0 % F and the C24 is 0.03 µg/mL. Besides, in data set [3], the Cmax was 1.3 µg/mL and the Tmax is 4.7 h. In addition, in data set [4], the “%AUCextra” value is 24.8%, the AUClast was determined as 64.197 µg·h/mL, the AUCtot stood at 87.808 µg·h/mL and the Clearance was 0.012 L/h/kg. Also, in data set [4], the MRT was found to be 22.2 h, the Vss is listed as 0.25 L/kg and the “t(1/2)” value worked out at 16.3 h.

By Cmax is commonly meant the maximum level reached in the sampled fluid or tissue. The Tmax is the time at which the peak concentration occurs. In general, MRT refers to the average time that molecules of a dose stay in the body. In general, Vss refers to the apparent volume that relates the amount in the body to the concentration in plasma or blood.
